Measured values: article PMC6102213, “Repurposing Thioridazine (TDZ) as an anti-inflammatory agent” (Scientific Reports, 2018)

Target: T1, IKKβ (Homo sapiens, UniProt O14920)
T1 construct: gene IKBKB
T1 sequence (O14920 1-756): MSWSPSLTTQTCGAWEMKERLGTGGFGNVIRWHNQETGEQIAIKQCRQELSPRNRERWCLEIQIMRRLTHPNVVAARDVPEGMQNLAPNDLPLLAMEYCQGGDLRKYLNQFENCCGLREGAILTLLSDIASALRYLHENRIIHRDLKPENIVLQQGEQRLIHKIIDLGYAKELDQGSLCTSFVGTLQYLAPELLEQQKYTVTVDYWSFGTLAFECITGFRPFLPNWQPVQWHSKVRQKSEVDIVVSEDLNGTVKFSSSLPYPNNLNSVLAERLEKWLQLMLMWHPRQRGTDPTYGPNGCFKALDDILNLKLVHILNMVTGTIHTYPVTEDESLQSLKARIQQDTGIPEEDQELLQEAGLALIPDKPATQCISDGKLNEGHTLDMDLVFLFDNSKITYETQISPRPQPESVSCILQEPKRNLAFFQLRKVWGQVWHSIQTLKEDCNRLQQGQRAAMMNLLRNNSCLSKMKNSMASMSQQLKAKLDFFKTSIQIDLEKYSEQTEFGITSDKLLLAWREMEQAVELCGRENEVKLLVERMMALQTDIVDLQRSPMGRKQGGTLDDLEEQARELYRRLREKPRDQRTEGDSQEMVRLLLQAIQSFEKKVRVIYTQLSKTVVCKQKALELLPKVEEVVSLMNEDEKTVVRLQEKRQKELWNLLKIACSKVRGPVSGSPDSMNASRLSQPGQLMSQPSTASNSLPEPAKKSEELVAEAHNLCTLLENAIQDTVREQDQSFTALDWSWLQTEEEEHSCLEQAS
Test: ADP-Glo IKKβ kinase assay (Promega), […] ng IKKβ, IKKtide, […] ATP
Type: biochemical

IC50: 3.63 nM
Structure (SMILES): CSc1ccc2c(c1)N(CCC1CCCCN1C)c1ccccc1S2 (stereo not shown) [TDZ, Thioridazine]
